Measurements from patent US20240208992A1, “MACROCYCLES AS CFTR MODULATORS” (Idorsia Pharmaceuticals Ltd, priority 2021, published 2024).

Molecular target: human F508del-CFTR (Homo sapiens, UniProt P13569, DEL508-508)
Assay: F508del-CFTR cell surface expression (corrector activity), DiscoveRx ß-galactosidase complementation chemiluminescence assay in recombinant U2OS cell line;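 further: U2OS cells co-expressing ProLink-tagged F508del-CFTR and a membrane-anchored enzyme acceptor, where more surface CFTR restores β-galactosidase activity measured by chemiluminescence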
Details: for EC50: EC50, F508del-CFTR cell surface expression; for Emax: U2OS
[1] = U2OS cell line, 16h compound incubation, geomean values
[2] = in relation to the Emax of the corrector lumacaftor (=100%), U2OS cell line, 16h compound incubation, arithmetic mean values
[3] = U2OS cells, 16h compound incubation, geomean values
[4] = in relation to Emax of corrector lumacaftor (=100%), arithmetic mean values

human F508del-CFTR, sequence (P13569 with tags, fused parts or gaps DEL508-508): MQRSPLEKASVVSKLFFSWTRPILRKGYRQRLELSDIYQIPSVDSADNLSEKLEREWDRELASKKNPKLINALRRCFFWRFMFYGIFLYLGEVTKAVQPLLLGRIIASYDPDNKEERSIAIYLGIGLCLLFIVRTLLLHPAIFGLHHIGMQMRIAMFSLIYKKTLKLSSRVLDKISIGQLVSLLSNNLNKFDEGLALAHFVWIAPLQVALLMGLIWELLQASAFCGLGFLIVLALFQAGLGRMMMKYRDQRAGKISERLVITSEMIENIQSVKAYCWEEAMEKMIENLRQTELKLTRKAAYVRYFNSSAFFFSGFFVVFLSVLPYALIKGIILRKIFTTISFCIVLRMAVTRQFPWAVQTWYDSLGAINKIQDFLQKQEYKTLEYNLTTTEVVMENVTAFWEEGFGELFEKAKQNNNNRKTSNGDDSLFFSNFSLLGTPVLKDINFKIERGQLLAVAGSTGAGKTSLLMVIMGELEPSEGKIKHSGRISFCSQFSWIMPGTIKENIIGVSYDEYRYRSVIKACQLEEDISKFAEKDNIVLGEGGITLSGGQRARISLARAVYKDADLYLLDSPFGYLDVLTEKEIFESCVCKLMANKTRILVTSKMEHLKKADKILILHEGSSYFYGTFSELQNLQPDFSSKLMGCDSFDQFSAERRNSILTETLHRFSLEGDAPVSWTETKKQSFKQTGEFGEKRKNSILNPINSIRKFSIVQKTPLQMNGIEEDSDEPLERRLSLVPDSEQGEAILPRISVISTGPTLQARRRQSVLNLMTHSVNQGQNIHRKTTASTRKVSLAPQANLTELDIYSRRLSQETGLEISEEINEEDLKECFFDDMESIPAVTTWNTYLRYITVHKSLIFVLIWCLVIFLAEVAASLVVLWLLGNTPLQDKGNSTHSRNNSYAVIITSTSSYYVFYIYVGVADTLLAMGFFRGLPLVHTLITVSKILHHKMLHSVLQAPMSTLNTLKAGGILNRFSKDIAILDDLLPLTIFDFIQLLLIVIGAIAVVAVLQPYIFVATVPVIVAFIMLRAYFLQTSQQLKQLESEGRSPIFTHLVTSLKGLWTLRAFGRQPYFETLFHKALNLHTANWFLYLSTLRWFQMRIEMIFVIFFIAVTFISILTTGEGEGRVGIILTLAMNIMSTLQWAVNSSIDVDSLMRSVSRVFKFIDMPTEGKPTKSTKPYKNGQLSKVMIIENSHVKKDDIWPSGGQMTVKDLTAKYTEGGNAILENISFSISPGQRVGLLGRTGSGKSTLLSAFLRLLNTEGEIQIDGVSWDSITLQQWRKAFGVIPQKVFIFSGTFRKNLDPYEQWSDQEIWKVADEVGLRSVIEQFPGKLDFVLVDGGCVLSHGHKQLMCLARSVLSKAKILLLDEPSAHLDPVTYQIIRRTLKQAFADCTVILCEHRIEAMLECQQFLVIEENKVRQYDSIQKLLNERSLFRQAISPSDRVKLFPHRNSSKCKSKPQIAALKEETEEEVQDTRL

SMILES | EC50 [1] | Emax [2] | EC50 [3] | Emax [4] | other results
Cc1ccc(F)c(CCNC(=O)[C@@H]2CC(=O)N(C)[C@@H](CC(C)C)C(=O)N3CCCC[C@@H]3C(=O)N[C@H](Cc3ccccc3)COc3cnc4ccccc4c3C(=O)N2)c1F [Example 102, (9S,13S,19aR,22R)-22-benzyl-N-(2,6-difluoro-3-methylphenethyl)-13-isobutyl-12-methyl-7,11,14,20-tetraoxo-7,8,9,10,11,12,13,14,17,18,19,19a,20,21,22,23-hexadecahydro-16H-pyrido[2′,11:6,7][1]oxa[4,7,10,14]tetraazacycloheptadecino[17,16-c]quinoline-9-carboxamide] | 225 nM | 332% | – | – | –
COc1cccc2c1C(=O)N[C@H](C(=O)NCCc1ccccc1)CC(=O)N(C)[C@@H](CC(C)C)C(=O)N(CCC1CCCCC1)CC(=O)N[C@H](Cc1ccccc1)CO2 [Example 211, (3R,9S,13S)-3-benzyl-7-(2-cyclohexylethyl)-9-isobutyl-16-methoxy-10-methyl-5,8,11,15-tetraoxo-N-phenethyl-2,3,4,5,6,7,8,9,10,11,12,13,14,15-tetradecahydrobenzo[p][1]oxa[4,7,10,14]tetraazacycloheptadecine-13-carboxamide] | 309 nM | 146% | – | – | –
COc1cccc2c1C(=O)N[C@H](C(=O)NCCc1ccc3c(c1)OCO3)CC(=O)N(C)CC(=O)N(CCC1CCCCC1)CC(=O)N[C@H](Cc1ccccc1)CO2 [Example 257, (3R,13S)-N-(2-(benzo[d][1,3]dioxol-5-yl)ethyl)-3-benzyl-7-(2-cyclohexylethyl)-16-methoxy-10-methyl-5,8,11,15-tetraoxo-2,3,4,5,6,7,8,9,10,11,12,13,14,15-tetradecahydrobenzo[p][1]oxa[4,7,10,14]tetraazacycloheptadecine-13-carboxamide] | 249 nM | 116% | – | – | –
CC(C)C[C@H]1C(=O)N(C)[C@H](Cc2nc(-c3ccc(F)cn3)no2)C(=O)N[C@H](Cc2ccccc2)COc2ccc3ncc(F)cc3c2C(=O)N[C@H](C(=O)NCCc2noc(C3CC3)n2)CC(=O)N1C [Example 794, (3S,7S,10R,13R)-13-benzyl-N-(2-(5-cyclopropyl-1,2,4-oxadiazol-3-yl)ethyl)-20-fluoro-10-((3-(5-fluoropyridin-2-yl)-1,2,4-oxadiazol-5-yl)methyl)-7-isobutyl-6,9-dimethyl-1,5,8,11-tetraoxo-1,2,3,4,5,6,7,8,9,10,11,12,13,14-tetradecahydro-[1]oxa[4,7,10,14]tetraazacycloheptadecino[16,17-f]quinoline-3-carboxamide] | – | – | 83 nM | 354% | –
COc1cc2c(cc1OC)C(=O)N[C@H](C(=O)NCCc1ccccc1F)CC(=O)N(C)[C@@H](CC(C)C)C(=O)N(C)CC(=O)N[C@H](Cc1ccccc1)CO2 [Example 196, (3R,9S,13S)-3-benzyl-N-(2-fluorophenethyl)-9-isobutyl-17,18-dimethoxy-7,10-dimethyl-5,8,11,15-tetraoxo-2,3,4,5,6,7,8,9,10,11,12,13,14,15-tetradecahydrobenzo[p][1]oxa[4,7,10,14]tetraazacycloheptadecine-13-carboxamide] | 425 nM | 106% | – | – | –
CC(C)C[C@H]1C(=O)N(C)C2(CC2)C(=O)N[C@H](Cc2ccccc2)COc2cnc3ccccc3c2C(=O)N[C@H](C(=O)NCCc2cc(C3CC3)on2)CC(=O)N1C [Example 118, (3′S,7′S,13′R)-13′-benzyl-N-(2-(5-cyclopropylisoxazol-3-yl)ethyl)-7′-isobutyl-6′,9′-dimethyl-1′,5′,8′,11′-tetraoxo-2′,3′,4′,5′,6′,7′,8′,9′,11′,12′,13′,14′-dodecahydro-1′H-spiro[cyclopropane-1,10′-[1]oxa[4,7,10,14]tetraazacycloheptadecino[17,16-c]quinoline]-3′-carboxamide] | 329 nM | 265% | – | – | –
COc1cc(CCNC(=O)[C@@H]2CC(=O)N(C)[C@@H](CC(C)C)C(=O)N(C)[C@H](Cc3nc(C(F)(F)F)no3)C(=O)N[C@H](Cc3ccccc3)COc3cc(C)nc(OC)c3C(=O)N2)on1 [Example 897, (3R,6R,9S,13S)-3-benzyl-9-isobutyl-16-methoxy-N-(2-(3-methoxyisoxazol-5-yl)ethyl)-7,10,18-trimethyl-5,8,11,15-tetraoxo-6-((3-(trifluoromethyl)-1,2,4-oxadiazol-5-yl)methyl)-2,3,4,5,6,7,8,9,10,11,12,13,14,15-tetradecahydropyrido[3,4-p][1]oxa[4,7,10,14]tetraazacycloheptadecine-13-carboxamide] | – | – | – | – | EC50 (U2OS cells, 16h compound incubation, geomean of several measurements): 32 nM; Emax (in relation to the Emax of the corrector lumacaftor (=100%), U2OS cells, 16h compound incubation, arithmetic mean): 454%
COc1cccc(CCNC(=O)[C@@H]2CC(=O)N(C)[C@@H](CC(C)C)C(=O)N(C[C@H]3CCCCO3)CC(=O)N[C@H](Cc3ccccc3)COc3ccc4ccccc4c3C(=O)N2)c1 (mixture of isomers) [Example 164, (3RS,7S,13R)-13-benzyl-7-isobutyl-N-(3-methoxyphenethyl)-6-methyl-1,5,8,11-tetraoxo-9-(((R)-tetrahydro-2H-pyran-2-yl)methyl)-1,2,3,4,5,6,7,8,9,10,11,12,13,14-tetradecahydronaphtho[1,2-p][1]oxa[4,7,10,14]tetraazacycloheptadecine-3-carboxamide] | 519 nM | – | – | – | –
COc1cccc(CCNC(=O)[C@@H]2CC(=O)N(C)[C@@H](CC(C)C)C(=O)N3CCN(C(C)C)C[C@@H]3C(=O)N[C@H](Cc3ccccc3)COc3ccc4nc(C)oc4c3C(=O)N2)c1 [Example 352, (8S,12S,18aR,21R)-21-benzyl-12-isobutyl-17-isopropyl-N-(3-methoxyphenethyl)-4,11-dimethyl-6,10,13,19-tetraoxo-6,7,8,9,10,11,12,13,16,17,18,18a,19,20,21,22-hexadecahydro-15H-oxazolo[4′,5′:5,6]benzo[1,2-p]pyrazino[2,1-f][1]oxa[4,7,10,14]tetraazacycloheptadecine-8-carboxamide] | 297 nM | 262% | – | – | –
CC(C)C[C@H]1C(=O)N(C)C2(CC2)C(=O)N[C@H](Cc2ccccc2)COc2cnc3ccccc3c2C(=O)N[C@H](C(=O)NCCc2cccc(-n3nccn3)c2)CC(=O)N1C [Example 453, (3′S,7′S,13′R)-N-(3-(2H-1,2,3-triazol-2-yl)phenethyl)-13′-benzyl-7′-isobutyl-6′,9′-dimethyl-1′,5′,8′,11′-tetraoxo-2′,3′,4′,5′,6′,7′,8′,9′,11′,12′,13′,14′-dodecahydro-1′H-spiro[cyclopropane-1,10′-[1]oxa[4,7,10,14]tetraazacycloheptadecino[17,16-c]quinoline]-3′-carboxamide] | – | – | 417 nM | 251% | –
COc1cccc(CCNC(=O)[C@@H]2CC(=O)N(C)[C@@H](CC(C)C)C(=O)N(C)CC(=O)N[C@H](Cc3ccccc3)COc3ccc4c(c3C(=O)N2)OC(F)(F)O4)c1 [Example 409, (8R,14S,18S)-8-benzyl-2,2-difluoro-14-isobutyl-N-(3-methoxyphenethyl)-12,15-dimethyl-10,13,16,20-tetraoxo-7,8,9,10,11,12,13,14,15,16,17,18,19,20-tetradecahydro-[1,3]dioxolo[4′,5′:5,6]benzo[1,2-p][1]oxa[4,7,10,14]tetraazacycloheptadecine-18-carboxamide] | – | – | 214 nM | 144% | –
[2H]C([2H])([2H])Oc1nc(C)cc2c1C(=O)N[C@H](C(=O)NCCc1nc(C3CC3)no1)CC(=O)N(C)[C@@H](CC(C)C)C(=O)N1CCCC[C@@H]1C(=O)N[C@H](Cc1ccccc1)CO2 [Example 657, (7S,11S,17aR,20R)-20-benzyl-N-(2-(3-cyclopropyl-1,2,4-oxadiazol-5-yl)ethyl)-11-isobutyl-4-(methoxy-d3)-2,10-dimethyl-5,9,12,18-tetraoxo-5,6,7,8,9,10,11,12,15,16,17,17a,18,19,20,21-hexadecahydro-14H-dipyrido[2,1-f:3′,4′-p][1]oxa[4,7,10,14]tetraazacycloheptadecine-7-carboxamide] | – | – | 347 nM | 291% | –
CC(C)C[C@H]1C(=O)N(C)[C@H](C)C(=O)N[C@H](Cc2ccccc2)COc2ccc3ncc(F)cc3c2C(=O)N[C@H](C(=O)NCCc2cc(C3CC3)no2)CC(=O)N1C [Example 797, (3S,7S,10R,13R)-13-benzyl-N-(2-(3-cyclopropylisoxazol-5-yl)ethyl)-20-fluoro-7-isobutyl-6,9,10-trimethyl-1,5,8,11-tetraoxo-1,2,3,4,5,6,7,8,9,10,11,12,13,14-tetradecahydro-[1]oxa[4,7,10,14]tetraazacycloheptadecino[16,17-f]quinoline-3-carboxamide] | – | – | 399 nM | 308% | –
Cc1cc(CCNC(=O)[C@@H]2CC(=O)N(C)[C@@H](CC(C)C)C(=O)N(C[C@H]3COc4ccccc4C3)CC(=O)N[C@H](Cc3ccccc3)COc3cnc4ccccc4c3C(=O)N2)on1 [Example 704, (3S,7S,13R)-13-benzyl-9-(((S)-chroman-3-yl)methyl)-7-isobutyl-6-methyl-N-(2-(3-methylisoxazol-5-yl)ethyl)-1,5,8,11-tetraoxo-1,2,3,4,5,6,7,8,9,10,11,12,13,14-tetradecahydro-[1]oxa[4,7,10,14]tetraazacycloheptadecino[17,16-c]quinoline-3-carboxamide] | – | – | 398 nM | 156% | –
COc1nccc2c1C(=O)N[C@H](C(=O)NCCc1cc(C)no1)CC(=O)N(C)[C@@H](CC(C)C)C(=O)N1Cc3ccccc3C[C@@H]1C(=O)N[C@H](Cc1ccccc1)CO2 [Example 678, (7S,11S,19aR,22R)-22-benzyl-11-isobutyl-4-methoxy-10-methyl-N-(2-(3-methylisoxazol-5-yl)ethyl)-5,9,12,20-tetraoxo-5,6,7,8,9,10,11,12,19,19a,20,21,22,23-tetradecahydro-14H-pyrido[3′,4′:16,17][1]oxa[4,7,10,14]tetraazacycloheptadecino[7,6-b]isoquinoline-7-carboxamide] | – | – | 355 nM | 296% | –
